Assay results as given in PubChem BioAssay (NCI).
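Where inhibition never reached the appropriate level, the endpoint shown equals the highest concentration tested. Otherwise, values were interpolated linearly from a five-concentration, 48-hour dose response in 96-well plates. Here, GI50 denotes the concentration required for 50% inhibition of growth. At the TGI there is no net growth.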

Tests used:
Test in all cases: DTP human tumour cell line panel, 48 h
A498 renal = test system: A498 renal
ACHN renal = test system: ACHN renal
EKVX NSCLC = test system: EKVX NSCLC
K-562 leukemia = test system: K-562 leukemia
NCI-H460 lung = test system: NCI-H460 lung
OVCAR-5 ovarian = test system: OVCAR-5 ovarian
SK-OV-3 ovarian = test system: SK-OV-3 ovarian
SW-620 colon = test system: SW-620 colon
TK-10 renal = test system: TK-10 renal
UACC-257 melanoma = test system: UACC-257 melanoma

| SMILES | TGI (A498 renal) | TGI (ACHN renal) | TGI (EKVX NSCLC) | TGI (K-562 leukemia) | TGI (NCI-H460 lung) | TGI (OVCAR-5 ovarian) | TGI (SK-OV-3 ovarian) | TGI (SW-620 colon) | TGI (TK-10 renal) | TGI (UACC-257 melanoma) | GI50 (A498 renal) | GI50 (ACHN renal) | GI50 (EKVX NSCLC) | GI50 (K-562 leukemia) | GI50 (NCI-H460 lung) | GI50 (OVCAR-5 ovarian) | GI50 (SK-OV-3 ovarian) | GI50 (SW-620 colon) | GI50 (TK-10 renal) | GI50 (UACC-257 melanoma) |
| --- | --- | --- | --- | --- | --- | --- | --- | --- | --- | --- | --- | --- | --- | --- | --- | --- | --- | --- | --- | --- |
| Nc1ncc2ncn(C3CCC(CO)O3)c2n1 (centres undefined) | > 100 µM | > 100 µM | > 100 µM | > 100 µM | > 100 µM | > 100 µM | > 100 µM | > 100 µM | > 100 µM | > 100 µM |  |  |  |  |  |  |  |  |  |  |
| CSC1=Nc2c(c(C)c(-c3ccccc3)n2COC(CO)CO)C2=NC(=O)CC(C)N12 (centres undefined) | > 100 µM | > 100 µM | > 100 µM | > 100 µM | > 100 µM | > 100 µM | > 100 µM | > 100 µM | > 100 µM | > 100 µM | > 100 µM | > 100 µM | > 100 µM | > 100 µM | > 100 µM | > 100 µM | > 100 µM | > 100 µM | > 100 µM | > 100 µM |
| C[As](C)SC1OCC(O)C(O)C1O (centres undefined) | 1.22 µM | 0.624 µM | 6.23 µM | 0.378 µM | 7.52 µM | 0.71 µM | 4.47 µM | 1.59 µM | 0.19 µM | 7.22 µM | 0.316 µM | 0.148 µM | 1.29 µM | 0.0495 µM | 1.1 µM | 0.208 µM | 0.211 µM | 0.217 µM | < 0.0258 µM | 1.43 µM |
| COc1cc2cc(Oc3cccc(NC(=O)Nc4cc(C(F)(F)F)cc(C(F)(F)F)c4)c3)c(C)nc2cc1OC | 4.29 µM | 1.69 µM | 2.98 µM | 2.53 µM | 2.72 µM | 4.14 µM | 3.47 µM | 5.71 µM | 9.18 µM | 5.49 µM | 1.6 µM | 0.39 µM | 1 µM | 0.573 µM | 0.96 µM | 1.93 µM | 1.71 µM | 1.94 µM | 2.32 µM | 2.48 µM |
| CCOC(=O)c1c(CN2CCN(C)CC2)nc2ccc(Cl)cc2c1-c1ccccc1 | 17.2 µM | 25.5 µM | 25 µM | 4.66 µM | 13 µM | 25 µM | 25.8 µM | 21.6 µM | 13.6 µM | 3.98 µM | 4.75 µM | 12.2 µM | 8.02 µM | 1.86 µM | 3.9 µM | 10.8 µM | 12.8 µM | 9.35 µM | 5.11 µM | 2.03 µM |
| COc1ccc(/C=N/NS(=O)(=O)c2ccccc2)cc1 | > 100 µM | > 100 µM | > 100 µM | > 100 µM | > 100 µM | > 100 µM | > 100 µM | > 100 µM | > 100 µM | > 100 µM |  |  |  |  |  |  |  |  |  |  |
| CC1(C)OC(=O)C(=C2CCC(C(=O)Nc3cccc(C(F)(F)F)c3)N2)C(=O)O1 (centres undefined) | > 100 µM | > 100 µM | > 100 µM | > 100 µM | > 100 µM | > 100 µM | > 100 µM | > 100 µM | > 100 µM | > 100 µM |  |  |  |  |  |  |  |  |  |  |
| CC1(C)N=C(N)N=C(N)N1c1cccc(CCc2ccccc2)c1 | 96.9 µM | > 100 µM | > 100 µM | > 100 µM | > 39.3 µM | > 100 µM | > 100 µM | > 100 µM | > 100 µM | 32.5 µM | 3.57 µM | 13.4 µM | 1.1 µM | 0.299 µM | 0.257 µM |  | 5.5 µM | 0.156 µM | 1.9 µM | 0.533 µM |
| Nn1c(-c2ccc(Cl)cc2)nc2c(-c3ccc(Cl)cc3)nc3ccc(Cl)cc3c2c1=O | 75.7 µM | 25.5 µM | > 100 µM | 48.5 µM | > 100 µM | > 100 µM | 40.3 µM | > 100 µM | 58.4 µM | > 100 µM | 36 µM | 5.42 µM | 5.86 µM | 11.4 µM | 3.36 µM | > 100 µM | 14.5 µM | 6.06 µM | 22.4 µM | 25.2 µM |
| COc1ccc(-c2csc(Nc3cccc(-c4csc(C)n4)c3)n2)cc1 | 49.2 µM | 18.6 µM | > 50 µM | 0.507 µM | > 19.3 µM | 48.6 µM | > 50 µM | > 50 µM | > 50 µM | 19.7 µM | 12.6 µM | 0.859 µM | 3.63 µM | 0.137 µM | 0.354 µM | 3.45 µM | 2.17 µM | 0.441 µM | 5.04 µM | 3.26 µM |
| CNC(=O)OCc1nc(SC)n(C)c1COC(=O)NC | 386 µM | 361 µM | 492 µM | 508 µM | 264 µM | 451 µM | 525 µM | 685 µM | 702 µM | 335 µM |  |  |  |  |  |  |  |  |  |  |
| O=C(/C=C/c1ccccc1O)c1ccccc1Cl | > 100 µM | > 100 µM | > 100 µM | > 100 µM | > 100 µM | > 100 µM | > 100 µM | > 100 µM | > 100 µM | > 100 µM |  |  |  |  |  |  |  |  |  |  |
| CCn1c(-c2nonc2N)nc2cnc(Oc3cccc(NC(=O)c4ccc(N(C)C)cc4)c3)cc21 | > 25 µM | > 25 µM | > 25 µM | > 25 µM | > 25 µM | > 25 µM | > 25 µM | > 25 µM | > 21 µM | > 25 µM | 4.48 µM | > 25 µM | 2.87 µM | > 25 µM | > 25 µM | > 25 µM | > 13.7 µM | > 25 µM | 0.549 µM | > 25 µM |
| Cc1cc(NN=C(c2ccc(O)cc2)c2ccc(O)cc2)c([N+](=O)[O-])cc1[N+](=O)[O-] | 23.9 µM | > 100 µM | 26.6 µM | > 100 µM | 8.57 µM | 36.6 µM | 19.9 µM | 45.6 µM | 37.5 µM | 8.29 µM | 9.29 µM | 4.08 µM | 4.54 µM | 92.7 µM | 2.62 µM | 11.1 µM | 2.98 µM | 8.83 µM | 4.53 µM | 4.71 µM |
